ChEMBL document CHEMBL3813620, “Discovery of selective inhibitors of tyrosyl-DNA phosphodiesterase 2 by targeting the enzyme DNA-binding cleft” (Bioorg Med Chem Lett, 2016)
The source made the active and inactive calls. The rule behind the calls is not given here.

What was measured:
[1] = biological target: T1, Tyrosyl-DNA phosphodiesterase 2 (Homo sapiens) (UniProt O95551); test: Inhibition of endogenous human TDP2 within whole cell extracts from human TDP2-complemented DT40 chicken cells using TY19 DNA as substrate after 15 mins by spectrophotometric analysis
T1 sequence (whole entry): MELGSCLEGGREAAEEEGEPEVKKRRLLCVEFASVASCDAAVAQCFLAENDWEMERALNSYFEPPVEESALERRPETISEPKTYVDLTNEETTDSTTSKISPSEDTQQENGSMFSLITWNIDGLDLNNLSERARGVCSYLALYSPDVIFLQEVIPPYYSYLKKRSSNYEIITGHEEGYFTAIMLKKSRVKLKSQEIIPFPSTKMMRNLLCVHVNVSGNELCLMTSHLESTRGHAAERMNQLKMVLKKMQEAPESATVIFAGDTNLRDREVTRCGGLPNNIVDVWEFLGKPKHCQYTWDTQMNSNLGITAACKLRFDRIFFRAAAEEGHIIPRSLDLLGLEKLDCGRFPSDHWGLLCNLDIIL

[2] = biological target: T2, Tyrosyl-DNA phosphodiesterase 2 (Danio rerio, UniProt Q5XJA0); test: Inhibition of zebra fish recombinant TDP2 using alpha32P-cordycepin-3'-labeled TY19 as substrate after 15 mins by PAGE method
T2 sequence (Q5XJA0 whole entry): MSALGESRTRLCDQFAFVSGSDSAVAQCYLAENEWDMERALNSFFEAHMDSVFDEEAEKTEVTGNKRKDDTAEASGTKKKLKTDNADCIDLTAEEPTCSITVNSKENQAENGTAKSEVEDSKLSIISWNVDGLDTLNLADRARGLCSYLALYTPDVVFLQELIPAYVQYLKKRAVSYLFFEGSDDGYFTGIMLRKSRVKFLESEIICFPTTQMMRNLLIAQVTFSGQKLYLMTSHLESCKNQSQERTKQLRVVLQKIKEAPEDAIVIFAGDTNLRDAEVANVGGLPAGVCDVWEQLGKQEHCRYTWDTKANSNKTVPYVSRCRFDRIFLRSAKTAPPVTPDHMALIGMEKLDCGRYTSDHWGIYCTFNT

[3] = biological target: T3, Tyrosyl-DNA phosphodiesterase 2 (Homo sapiens, UniProt O95551); test: Inhibition of human recombinant TDP2 using alpha32P-cordycepin-3'-labeled TY19 as substrate after 15 mins by PAGE method
T3 sequence (O95551 whole entry): T1 sequence (whole entry)

[4] = biological target: T3, Tyrosyl-DNA phosphodiesterase 2; test: Inhibition of human TDP2
[5] = biological target: T4, Tyrosyl-DNA phosphodiesterase 1 (Homo sapiens, UniProt Q9NUW8); test: Effect on human TDP1 up to 200 uM
[6] = biological target: T5, Tyrosyl-DNA phosphodiesterase 2 (Mus musculus, UniProt Q9JJX7); test: Inhibition of mouse recombinant TDP2 using alpha32P-cordycepin-3'-labeled TY19 as substrate after 15 mins by PAGE method
T5 sequence (Q9JJX7 whole entry): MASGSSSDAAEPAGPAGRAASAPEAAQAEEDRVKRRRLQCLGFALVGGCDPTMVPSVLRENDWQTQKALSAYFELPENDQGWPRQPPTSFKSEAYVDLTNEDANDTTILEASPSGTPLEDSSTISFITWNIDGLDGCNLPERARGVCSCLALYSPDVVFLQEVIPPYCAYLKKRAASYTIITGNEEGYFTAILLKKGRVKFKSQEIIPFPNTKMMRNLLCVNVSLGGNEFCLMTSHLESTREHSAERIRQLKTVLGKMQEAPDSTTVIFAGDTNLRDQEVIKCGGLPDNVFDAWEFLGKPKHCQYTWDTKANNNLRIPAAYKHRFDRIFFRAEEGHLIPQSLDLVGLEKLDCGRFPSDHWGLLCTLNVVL

[7] = biological target: T4, Tyrosyl-DNA phosphodiesterase 1; test: Inhibition of human recombinant TDP1 using 5'-[32P]-labeled N14Y as substrate after 15 mins by PAGE method

T4 sequence (Q9NUW8 whole entry): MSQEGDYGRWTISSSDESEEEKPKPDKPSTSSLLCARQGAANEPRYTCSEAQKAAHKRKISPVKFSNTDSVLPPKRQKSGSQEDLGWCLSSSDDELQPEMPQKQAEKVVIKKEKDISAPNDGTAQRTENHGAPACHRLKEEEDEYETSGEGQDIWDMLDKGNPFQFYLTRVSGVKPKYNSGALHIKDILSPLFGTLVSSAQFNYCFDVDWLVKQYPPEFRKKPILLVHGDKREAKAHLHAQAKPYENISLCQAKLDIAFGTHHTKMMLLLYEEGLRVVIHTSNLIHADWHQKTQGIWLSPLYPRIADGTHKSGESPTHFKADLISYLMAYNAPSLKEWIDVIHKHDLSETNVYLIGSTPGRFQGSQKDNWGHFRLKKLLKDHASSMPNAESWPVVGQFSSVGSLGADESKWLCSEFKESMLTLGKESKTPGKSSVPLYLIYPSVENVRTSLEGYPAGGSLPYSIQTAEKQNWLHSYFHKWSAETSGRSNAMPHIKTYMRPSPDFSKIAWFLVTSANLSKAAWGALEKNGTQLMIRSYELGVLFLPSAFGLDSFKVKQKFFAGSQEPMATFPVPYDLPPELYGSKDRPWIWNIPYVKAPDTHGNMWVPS

`O=C(NC(CSSCC(NC(=O)c1ccccc1)C(=O)O)C(=O)O)c1ccccc1` (stereo not given) was tested, and the inhibition [1] was “Active”, the IC50 [2] was 15 µM and the IC50 [3] was 4.1 µM.
With `COc1ccc(CC2C(=O)N(c3ccc([N+](=O)[O-])cc3)N=C2C(=O)O)cc1Oc1ccc(F)cc1` (stereo not given) the IC50 [4] was 12 µM and the Activity [5] was “inactive”.
In the case of `N#CCCN(CCC#N)c1ccc(/C=C2\C(=O)N(c3ccc(S(=O)(=O)O)cc3)N=C2C(=O)O)cc1`, the IC50 [6] is reported as 15 µM, the IC50 [7] is reported as over 111 µM and the inhibition [1] is reported as “Active”. For the same compound, the IC50 [2] was 5.2 µM and the IC50 [3] was 3.5 µM.
With `O=C(Cc1ccccc1)NC(CSSCC(NC(=O)Cc1ccccc1)C(=O)O)C(=O)O` (stereo not given) the IC50 [6] was over 111 µM, the IC50 [7] was over 111 µM and the inhibition [1] was “Active”. The IC50 [2] was 20 µM and the IC50 [3] was 9 µM.
